From patent publication US6518279B2, “Cyclopentanone dihydropyridine compounds useful as potassium channel openers” (Abbott Laboratories, priority 1999, dated 2003) come the findings set out here.

pEC50: −log10 of the molar value. In brackets after ≈: the same amount, converted by molar mass. Read-outs that look alike come from different tables or passages of the source.

Data set [1] is described as follows: Aqueous solubility, 50 mM NaH2PO4 buffers, reverse-phase HPLC. The data set is classed as physicochemical. To be noted: aqueous buffer, thermodynamic from solid, shaking 60 hours, room temperature. The procedure:
Aqueous solubilities were determined by shaking 60 hours at room temperature in 50 mM NaH2PO4 buffers at pH's 6.5 and 7.4. Assays were performed using reverse-phase HPLC. The solubilities are expressed in nanomoles per milliliter in Table 4.

Data set [2] has as its system guinea-pig urinary bladder (GPB) cells. Description: Membrane hyperpolarization (MHP) assay, potassium channel opening activity, DiBAC(4)3 / FLIPR. As to conditions: Cavia porcellus; for Emax: maximal steady-state hyperpolarization in GPB cells, relative to 10 μM P1075 (100%), read-out: Maximal Response (% P1075); for pEC50: membrane hyperpolarization in GPB cells. The data set is classed as cell-based. Here is the method:
Compounds were evaluated for potassium channel opening activity using primary cultured guinea-pig urinary bladder (GPB) cells.
For the preparation of urinary bladder smooth muscle cells, urinary bladders were removed from male guinea-pigs (Hartley, Charles River, Wilmington, Mass.) weighing 300-400 g and placed in ice-cold Ca^2+-free Krebs solution (Composition, mM: KCl, 2.7; KH2PO4, 1.5; NaCl, 75; Na2HPO4, 9.6; Na2HPO4·7H2O, 8; MgSO4, 2; glucose, 5; HEPES, 10; pH 7.4). Cells were isolated by enzymatic dissociation as previously described with minor modifications (Klockner, U. and Isenberg, G., Pflugers Arch. (1985), 405, 329-339), hereby incorporated by reference. The bladder was cut into small sections and incubated in 5 mL of the Kreb's solution containing 1 mg/mL collagenase (Sigma, St. Louis, Mo.) and 0.2 mg/mL pronase (Calbiochem, La Jolla, Calif.) with continuous stirring in a cell incubator for 30 minutes. The mixture was then centrifuged at 1300×g for 5 minutes, and the pellet resuspended in Dulbecco's PBS (GIBCO, Gaithersburg, Md.) and recentrifuged to remove residual enzyme. The cell pellet was resuspended in 5 mL growth media (composition: Dulbecco's modified Eagle's medium supplemented with 10% fetal bovine serum, 100 units/mL penicillin, 100 units/mL streptomycin and […] amphotericin B) and further dissociated by pipetting the suspension through a flame-polished Pasteur pipette and passing it through a polypropylene mesh membrane (Spectrum, Houston, Tex.). The cell density was adjusted to 100,000 cells/mL by resuspension in growth media. Cells were plated in clear-bottomed black 96-well plates (Packard) for membrane potential studies at a density of 20,000 cells/well and maintained in a cell incubator with 90% air: 10% CO2 until confluent. Cells were confirmed to be of smooth muscle type by cytoskeletal staining using a monoclonal mouse anti human-α-smooth muscle actin (Biomeda, Foster City, Calif.)
Functional activity at potassium channels was measured by evaluating changes in membrane potential using the bis-oxonol dye DiBAC(4)3 (Molecular Probes) in a 96-well cell-based kinetic assay system, Fluorescent Imaging Plate Reader (FLIPR) (K. S. Schroeder et al., J. Biomed. Screen., v. 1 pp. 75-81 (1996)), hereby incorporated by reference. DiBAC(4)3 is an anionic potentiometric probe which partitions between cells and extracellular solution in a membrane potential-dependent manner. With increasing membrane potential (for example, K^+ depolarization), the probe further partitions into the cell; this is measured as an increase in fluorescence due to dye interaction with intracellular lipids and proteins. Conversely, decreasing membrane potential (hyperpolarization by potassium channel openers) evokes a decrease in fluorescence.
Confluent guinea-pig urinary bladder cells cultured in black clear-bottomed 96-well plates were rinsed twice with […] assay buffer (composition, mM: HEPES, 20; NaCl, 120; KCl, 2; CaCl2, 2; MgCl2, 1; glucose, 5; pH 7.4 at 25° C.) containing 5 μM DiBAC(4)3 and incubated with […] of the buffer in a cell incubator for 30 minutes at 37° C. to ensure dye distribution across the membrane. After recording the baseline fluorescence for 5 minutes, the reference or test compounds, prepared at 10 times the concentration in the assay buffer, were added directly to the wells. Changes in fluorescence were monitored for an additional 25 minutes. Hyperpolarization responses were corrected for any background noise and were normalized to the response observed with 10 μM of the reference compound P1075 (assigned as 100%), a potent opener of smooth muscle KATP channels (Quast et al., Mol. Pharmacol., v. 43 pp. 474-481 (1993)), hereby incorporated by reference.
Routinely, five concentrations of P1075 or test compounds (log or half-log dilutions) were evaluated and the maximal steady-state hyperpolarization values (expressed as % relative to P1075) plotted as a function of concentration. […]

For data set [3], the system named is Landrace pig bladder strips. Description: Functional potassium channel opening activity in isolated bladder strips (field-stimulated twitch). As to conditions: for Index: ED50 of P1075 divided by ED50 of test agonist in a given tissue, averaged; for EC50: Sus scrofa, negative logarithm of ED50, Landrace pig bladder strips, read-out: pD2 (converted); for Efficacy (% P1075): maximal efficacy on the stimulated twitch, Landrace pig bladder strips. The procedure: Compounds were evaluated for functional potassium channel opening activity using tissue strips obtained from Landrace pig bladders.
Landrace pig bladders were obtained from female Landrace pigs of 9-30 kg. Landrace pigs were euthanized with an intraperitoneal injection of pentobarbital solution, Somlethal®, J. A. Webster Inc., Sterling Mass. The entire bladder was removed and immediately placed into Krebs Ringer bicarbonate solution (composition, mM: NaCl, 120; NaHCO3, 20; dextrose, 11; KCl, 4.7; CaCl2, 2.5; MgSO4, 1.5; KH2PO4, 1.2; K2EDTA, 0.01, equilibrated with 5% CO2/95% O2 pH 7.4 at 37° C.). Propranolol (0.004 mM) was included in all of the assays to block β-adrenoceptors. The trigonal and dome portions were discarded. Strips 3-5 mm wide and 20 mm long were prepared from the remaining tissue cut in a circular fashion. The mucosal layer was removed. One end was fixed to a stationary glass rod and the other to a Grass FT03 transducer at a basal preload of 1.0 gram. Two parallel platinum electrodes were included in the stationary glass rod to provide field stimulation of 0.05 Hz, 0.5 milli-seconds at 20 volts. This low frequency stimulation produced a stable twitch response of 100-500 centigrams. Tissues were allowed to equilibrate for at least 60 minutes and primed with 80 mM KCl. A control concentration response curve (cumulative) was generated for each tissue using the potassium channel opener P1075 as the control agonist. […] After a 60 minute rinsing period, a concentration response curve (cumulative) was generated for the test agonist in the same fashion as that used for the control agonist P1075. The maximal efficacy of each compounds (expressed as % relative to P1075) is reported. The amount of agent necessary to cause 50% of the agent's maximal response (ED50) was calculated using “ALLFIT” (DeLean et al., Am. J. Physiol. 235, E97 (1980)), hereby incorporated by reference, and agonist potencies were expressed as pD2 (the negative logarithm). Agonist potencies were also expressed as an index relative to P1075. The index was calculated by dividing the ED50 for P1075 by the ED50 for the test agonist in a given tissue. Each tissue was used for only one test agonist, and the indices obtained from each tissue were averaged to provide an average index of potency.

In a further data set the test system is bladder contractions. The experiment in a line: In-vivo bladder efficacy protocol (isovolumetric contractions model). As to conditions: dose reducing area under the curve of bladder contractions by 30%, iv, anesthetized male CD rats. The arrangement: species or system rat. The text has this: In-vivo bladder efficacy protocol (isovolumetric contractions model)
Male CD rats (400-450 g) were anesthetized with urethane (0.6 g/kg ip+0.6 g/kg sc). The left femoral artery and vein were cannulated with polyethylene (PE-50) tubing for the measurement of arterial pressure and test compound administration respectively. A third polyethylene catheter (PE-60) was inserted 3-4 mm into the apex of the bladder dome and secured using a 5-0 silk purse string suture. The bladder was emptied via this catheter and additionally by applying slight manual pressure on the lower abdomen. The urinary catheter was connected using a Y-tube connector to both a pressure transducer and a syringe pump. […] After the contractions stabilized to a consistent pattern, bladder pressure and arterial pressure were monitored for 20 minutes before and after a dose of the vehicle (equal parts of β-cyclodextrin stock solution (100 g β-cyclodextrin dissolved in 200 ml) and sterile water) alone. […] Mean arterial pressure and area under the curve of the bladder contractions were determined from the respective waveforms using a Modular Instruments, Inc. computerized data acquisition system and averaged over the last ten minutes of each twenty minute period. […]
Example 3, of the present invention (Table 3, FIG. 1), was dosed at 0.01, 0.1 and 1 μmol/kg. The AUC ED30 for Example 3 was determined to be 0.1 μmol/kg.

Setting [4] is: pH 6.5, 50 mM NaH2PO4 buffer, read-out: Aqueous solubility pH 6.5.
[5] abbreviates: pH 7.4, 50 mM NaH2PO4 buffer, read-out: Aqueous solubility pH 7.4.

Consider `O=C1CCC2=C1C(c1ccc(F)c(Br)c1)C1=C(CCC1=O)N2` [Example 1, 8-(3-Bromo-4-fluorophenyl)-2,3,4,5,6,8-hexahydrodicyclopenta[b,e]pyridine-1,7-dione], for which, in data set [1] (setting [4]), the solubility (in general, how much of the substance goes into solution per volume) at 60 h was 205 µM (≈ 74.3 µg/mL). Also, in data set [1] (setting [5]), the solubility at 60 h was 227 µM (≈ 82.2 µg/mL). In addition, in data set [2], the Emax was 102% and the negative logarithm of the EC50 (pEC50) (in general, −log10 of the EC50, conventionally taken in molar units) is 7.15. Besides, in data set [3], the Index was 0.48, the EC50 was 158 nM and the “Efficacy (% P1075)” value amounted to 98 % P1075.
Take `O=C1CCC2=C1C(c1ccc(F)c(Cl)c1)C1=C(CCC1=O)N2` [Example 5, 8-(3-Chloro-4-fluorophenyl)-2,3,4,5,6,8-hexahydrodicyclopenta[b,e]pyridine-1,7-dione]: in data set [2], the Emax is 72% and the negative logarithm of the EC50 (pEC50) is 6.85.
As for `O=C1CCC2=C1C(c1ccc(Cl)c(Cl)c1)C1=C(CCC1=O)N2` [Example 6, 8-(3,4-Dichlorophenyl)-2,3,4,5,6,8-hexahydrodicyclopenta[b,e]pyridine-1,7-dione], in data set [2], the Emax was determined as 94% and the negative logarithm of the EC50 (pEC50) is 7.00.
In the case of `CCC(C)(C)N=C(NC#N)Nc1cccnc1` [Example P1075, reference compound], the “Effect on stimulated twitch” value in data set [3] (10^−9 to 10^−5 M, cumulative, dose dependent) is “completely eliminated the stimulated twitch”.
For `O=C1CCC2=C1C(c1ccc3nonc3c1)C1=C(CCC1=O)N2` [Example 7, 8-(2,1,3-benzoxadiazol-5-yl)-2,3,4,5,6,8-hexahydrodicyclopenta[b,e]pyridine-1,7-dione], the melting point (in general, the temperature of the solid-liquid transition) fell in the range of 272 to 273 °C. Also, in data set [2], the Emax is 98% and the negative-log EC50 (pEC50) is 6.89.
For the compound `O=C1CCC2=C1C(c1ccc(Cl)c([N+](=O)[O-])c1)C1=C(CCC1=O)N2` [Example 3, 8-(4-Chloro-3-nitrophenyl)-2,3,4,5,6,8-hexahydrodicyclopenta[b,e]pyridine-1,7-dione], the solubility at 60 h in data set [1] (setting [4]) was determined as 129 µM (≈ 44.5 µg/mL). For the same compound, the solubility at 60 h in data set [1] (setting [5]) worked out at 129 µM (≈ 44.5 µg/mL). Besides, in data set [2], the Emax stood at 113% and the pEC50 was 7.28. Also, the “AUC ED30” value in the data set with bladder contractions was determined as 0.1 µmol/kg. In data set [3], the Index amounted to 0.35, the EC50 was 251 nM and the “Efficacy (% P1075)” value is on record as 98 % P1075.
As to `N#Cc1cccc(C2C3=C(CCC3=O)NC3=C2C(=O)CC3)c1` [Example 2, 8-(3-Cyanophenyl)-2,3,4,5,6,8-hexahydrodicyclopenta[b,e]pyridine-1,7-dione], in data set [1] (setting [4]), the solubility at 60 h worked out at 1300 µM (≈ 377 µg/mL). Further, the solubility at 60 h in data set [1] (setting [5]) was determined as 1290 µM (≈ 375 µg/mL). For the same compound, in data set [2], the Emax came out at 65% and the negative-log EC50 (pEC50) was 5.28. In data set [3], the Index was found to be 0.017, the EC50 was 6310 nM and the “Efficacy (% P1075)” value was determined as 96 % P1075.
Regarding `O=C1CCC2=C1C(c1cccc([N+](=O)[O-])c1)C1=C(CCC1=O)N2` [Example 4, 8-(3-Nitrophenyl)-2,3,4,5,6,8-hexahydrodicyclopenta[b,e]pyridine-1,7-dione], the solubility at 60 h in data set [1] (setting [4]) is 158 µM (≈ 49 µg/mL). Further, in data set [1] (setting [5]), the solubility at 60 h was determined as 164 µM (≈ 50.9 µg/mL). In data set [2], the Emax was 123% and the negative-log EC50 (pEC50) is 6.47.
As to `O=C1C=CC2=C1C(c1ccc(F)c(Br)c1)C1=C(CCCC1=O)N2` (centres unmarked) [Example 9, 9-(3-bromo-4-fluorophenyl)-5,6,7,9-tetrahydro-1H-cyclopenta[b]quinoline-1,8(4H)-dione], in data set [2], the Emax amounted to 100% and the negative logarithm of the EC50 (pEC50) is 7.20.
Consider `CC1=C(C(=O)O)C(c2ccc(F)c(Br)c2)C2=C(CCC2=O)N1` (centres unmarked) [Example 10, 4-(3-bromo-4-fluorophenyl)-2-methyl-5-oxo-4,5,6,7-tetrahydro-1H-cyclopenta[b]pyridine-3-carboxylic acid], for which the melting point lay in the range of 211 to 214 °C. Also, in data set [2], the Emax turned out to be 104% and the pEC50 was 5.57.
With `O=C1CCC2=C1C(c1ccc(F)c(I)c1)C1=C(CCC1=O)N2` [Example 8, 8-(3-Iodo-4-fluorophenyl)-2,3,4,5,6,8-hexahydrodicyclopenta[b,e]pyridine-1,7-dione], in data set [2], the Emax stood at 93% and the negative-log EC50 (pEC50) is 7.89.
